Measurements as given in the NIST ThermoML archive (doi:10.1007/s10765-016-2061-1).
Numbers after ± are expanded uncertainties.

Conditions: Liquid, Vibrating tube method

For `CCF` [fluoroethane], the mass density (283.5 K, 49990 kPa) was 805.67 ± 0.76 kg/m3, the mass density (283.5 K, 60000 kPa) was 816.48 ± 0.87 kg/m3 and the mass density (283.5 K, 69990 kPa) was 826.06 ± 0.87 kg/m3. For the same compound, the mass density (283.5 K, 79970 kPa) was 834.87 ± 0.89 kg/m3, the mass density (283.5 K, 90040 kPa) was 843.3 ± 0.9 kg/m3 and the mass density (283.51 K, 10000 kPa) was 747.35 ± 0.69 kg/m3. It also gave a mass density (283.51 K, 15000 kPa) of 756.91 ± 0.69 kg/m3, a mass density (283.51 K, 20000 kPa) of 765.51 ± 0.7 kg/m3 and a mass density (283.51 K, 25000 kPa) of 773.62 ± 0.7 kg/m3. For the same compound, the mass density (283.51 K, 30000 kPa) was 780.86 ± 0.71 kg/m3, the mass density (283.51 K, 40000 kPa) was 794.13 ± 0.74 kg/m3 and the mass density (283.51 K, 100000 kPa) was 851.08 ± 0.91 kg/m3. For the same compound, the mass density (283.52 K, 1000 kPa) was 727.11 ± 0.69 kg/m3, the mass density (283.52 K, 3000 kPa) was 731.96 ± 0.69 kg/m3 and the mass density (283.52 K, 4990 kPa) was 736.6 ± 0.68 kg/m3. The mass density (293.2 K, 1010 kPa) was 706.97 ± 0.72 kg/m3, the mass density (293.2 K, 3010 kPa) was 712.87 ± 0.72 kg/m3 and the mass density (293.21 K, 5010 kPa) was 718.27 ± 0.7 kg/m3. For the same compound, the mass density (293.21 K, 10010 kPa) was 730.51 ± 0.7 kg/m3, the mass density (293.21 K, 15010 kPa) was 741.15 ± 0.7 kg/m3 and the mass density (293.21 K, 20000 kPa) was 750.65 ± 0.71 kg/m3. The mass density (293.21 K, 25010 kPa) was 759.29 ± 0.72 kg/m3, the mass density (293.21 K, 30010 kPa) was 767.25 ± 0.73 kg/m3 and the mass density (293.21 K, 70000 kPa) was 815.59 ± 0.9 kg/m3. The mass density (293.21 K, 80000 kPa) was 825 ± 0.91 kg/m3, the mass density (293.22 K, 40010 kPa) was 781.39 ± 0.75 kg/m3 and the mass density (293.22 K, 50000 kPa) was 793.87 ± 0.78 kg/m3. It also gave a mass density (293.22 K, 60000 kPa) of 805.15 ± 0.9 kg/m3, a mass density (293.22 K, 90000 kPa) of 833.51 ± 0.92 kg/m3 and a mass density (293.22 K, 99990 kPa) of 841.66 ± 0.94 kg/m3. It also gave a mass density (303.23 K, 3010 kPa) of 692.69 ± 0.78 kg/m3, a mass density (303.23 K, 5010 kPa) of 699.12 ± 0.73 kg/m3 and a mass density (303.23 K, 10000 kPa) of 713.26 ± 0.72 kg/m3. The mass density (303.23 K, 15000 kPa) was 725.31 ± 0.72 kg/m3, the mass density (303.23 K, 20010 kPa) was 735.85 ± 0.72 kg/m3 and the mass density (303.23 K, 30000 kPa) was 753.95 ± 0.74 kg/m3. For the same compound, the mass density (303.24 K, 25010 kPa) was 745.33 ± 0.73 kg/m3, the mass density (303.24 K, 40010 kPa) was 769.21 ± 0.77 kg/m3 and the mass density (303.24 K, 50000 kPa) was 782.6 ± 0.8 kg/m3. For the same compound, the mass density (303.24 K, 60000 kPa) was 794.39 ± 0.92 kg/m3, the mass density (303.24 K, 70000 kPa) was 805.57 ± 0.93 kg/m3 and the mass density (303.24 K, 80000 kPa) was 815.36 ± 0.94 kg/m3. For the same compound, the mass density (303.25 K, 90000 kPa) was 824.43 ± 0.95 kg/m3, the mass density (303.25 K, 100000 kPa) was 832.9 ± 0.96 kg/m3 and the mass density (313.14 K, 3000 kPa) was 669.48 ± 0.82 kg/m3. It also gave a mass density (313.14 K, 5000 kPa) of 677.22 ± 0.77 kg/m3, a mass density (313.14 K, 10000 kPa) of 694 ± 0.75 kg/m3 and a mass density (313.14 K, 15000 kPa) of 707.5 ± 0.74 kg/m3. It also gave a mass density (313.15 K, 20000 kPa) of 719.54 ± 0.74 kg/m3, a mass density (313.15 K, 25000 kPa) of 729.96 ± 0.75 kg/m3 and a mass density (313.15 K, 30010 kPa) of 739.29 ± 0.75 kg/m3. For the same compound, the mass density (313.15 K, 40000 kPa) was 755.43 ± 0.79 kg/m3, the mass density (313.15 K, 50000 kPa) was 770.06 ± 0.81 kg/m3 and the mass density (313.15 K, 60000 kPa) was 782.28 ± 0.95 kg/m3. It also gave a mass density (313.15 K, 70000 kPa) of 794.18 ± 0.96 kg/m3, a mass density (313.15 K, 80000 kPa) of 804.63 ± 0.97 kg/m3 and a mass density (313.16 K, 90000 kPa) of 814.08 ± 0.98 kg/m3. The mass density (313.16 K, 100000 kPa) was 822.46 ± 1 kg/m3, the mass density (323 K, 3000 kPa) was 644.53 ± 0.92 kg/m3 and the mass density (323 K, 5000 kPa) was 654.18 ± 0.82 kg/m3. The mass density (323 K, 10000 kPa) was 673.87 ± 0.79 kg/m3, the mass density (323 K, 15000 kPa) was 689.57 ± 0.77 kg/m3 and the mass density (323 K, 20000 kPa) was 702.96 ± 0.76 kg/m3. The mass density (323 K, 25000 kPa) was 714.54 ± 0.77 kg/m3, the mass density (323 K, 90000 kPa) was 804.1 ± 1 kg/m3 and the mass density (323.01 K, 30000 kPa) was 724.71 ± 0.77 kg/m3. For the same compound, the mass density (323.01 K, 40000 kPa) was 742.42 ± 0.8 kg/m3, the mass density (323.01 K, 50000 kPa) was 757.67 ± 0.83 kg/m3 and the mass density (323.01 K, 60000 kPa) was 770.9 ± 0.98 kg/m3. The mass density (323.01 K, 69990 kPa) was 783.33 ± 0.99 kg/m3, the mass density (323.01 K, 80000 kPa) was 794.16 ± 1 kg/m3 and the mass density (323.01 K, 100000 kPa) was 813.21 ± 1 kg/m3. It also gave a mass density (332.98 K, 3000 kPa) of 616.38 ± 1.1 kg/m3, a mass density (332.98 K, 5000 kPa) of 628.96 ± 0.91 kg/m3 and a mass density (332.98 K, 10010 kPa) of 653.01 ± 0.85 kg/m3. For the same compound, the mass density (332.98 K, 50000 kPa) was 745.52 ± 0.85 kg/m3, the mass density (332.98 K, 60000 kPa) was 759.62 ± 1 kg/m3 and the mass density (332.99 K, 15000 kPa) was 671.15 ± 0.8 kg/m3. The mass density (332.99 K, 20010 kPa) was 686.12 ± 0.78 kg/m3, the mass density (332.99 K, 25000 kPa) was 698.88 ± 0.79 kg/m3 and the mass density (332.99 K, 29990 kPa) was 710.09 ± 0.79 kg/m3. It also gave a mass density (332.99 K, 39990 kPa) of 729.27 ± 0.82 kg/m3, a mass density (332.99 K, 69990 kPa) of 772.51 ± 1 kg/m3 and a mass density (332.99 K, 80010 kPa) of 783.85 ± 1 kg/m3. For the same compound, the mass density (332.99 K, 90000 kPa) was 794.07 ± 1 kg/m3, the mass density (332.99 K, 100000 kPa) was 803.45 ± 1.1 kg/m3 and the mass density (342.85 K, 3000 kPa) was 582.54 ± 1.3 kg/m3. The mass density (342.85 K, 5000 kPa) was 600.31 ± 1.1 kg/m3, the mass density (342.85 K, 10000 kPa) was 630.51 ± 0.93 kg/m3 and the mass density (342.85 K, 15000 kPa) was 651.87 ± 0.84 kg/m3. It also gave a mass density (342.85 K, 20000 kPa) of 668.76 ± 0.81 kg/m3, a mass density (342.85 K, 25000 kPa) of 682.96 ± 0.81 kg/m3 and a mass density (342.85 K, 30000 kPa) of 695.28 ± 0.81 kg/m3. It also gave a mass density (342.85 K, 40000 kPa) of 716.03 ± 0.84 kg/m3, a mass density (342.85 K, 60000 kPa) of 748.38 ± 1.1 kg/m3 and a mass density (342.86 K, 50010 kPa) of 733.53 ± 0.87 kg/m3. The mass density (342.86 K, 70000 kPa) was 762.03 ± 1.1 kg/m3, the mass density (342.86 K, 79990 kPa) was 773.74 ± 1.1 kg/m3 and the mass density (342.86 K, 90010 kPa) was 784.53 ± 1.1 kg/m3. The mass density (342.87 K, 100000 kPa) was 794.42 ± 1.1 kg/m3, the mass density (352.86 K, 5000 kPa) was 566.12 ± 1.3 kg/m3 and the mass density (352.86 K, 10000 kPa) was 606.19 ± 1.1 kg/m3. For the same compound, the mass density (352.86 K, 15000 kPa) was 631.59 ± 0.89 kg/m3, the mass density (352.86 K, 19990 kPa) was 650.88 ± 0.85 kg/m3 and the mass density (352.86 K, 25000 kPa) was 666.7 ± 0.83 kg/m3. The mass density (352.86 K, 29990 kPa) was 680.18 ± 0.83 kg/m3, the mass density (352.86 K, 39990 kPa) was 702.62 ± 0.86 kg/m3 and the mass density (352.86 K, 50000 kPa) was 721.07 ± 0.89 kg/m3. For the same compound, the mass density (352.86 K, 59990 kPa) was 736.86 ± 0.93 kg/m3, the mass density (352.86 K, 70000 kPa) was 751.19 ± 1.1 kg/m3 and the mass density (352.86 K, 79990 kPa) was 763.56 ± 1.1 kg/m3. It also gave a mass density (352.86 K, 90000 kPa) of 774.75 ± 1.1 kg/m3, a mass density (352.87 K, 99990 kPa) of 785.11 ± 1.1 kg/m3 and a mass density (362.79 K, 4990 kPa) of 521.7 ± 1.6 kg/m3. It also gave a mass density (362.79 K, 10000 kPa) of 579.49 ± 1.3 kg/m3, a mass density (362.8 K, 15000 kPa) of 610.29 ± 0.97 kg/m3 and a mass density (362.8 K, 19990 kPa) of 632.41 ± 0.89 kg/m3. For the same compound, the mass density (362.8 K, 24990 kPa) was 650.04 ± 0.86 kg/m3, the mass density (362.8 K, 30000 kPa) was 664.91 ± 0.85 kg/m3 and the mass density (362.8 K, 40000 kPa) was 689.17 ± 0.88 kg/m3. The mass density (362.8 K, 49990 kPa) was 708.84 ± 0.92 kg/m3, the mass density (362.81 K, 59990 kPa) was 725.55 ± 0.95 kg/m3 and the mass density (362.81 K, 70000 kPa) was 740.64 ± 1.1 kg/m3. The mass density (362.81 K, 80000 kPa) was 753.56 ± 1.1 kg/m3, the mass density (362.81 K, 90000 kPa) was 765.31 ± 1.1 kg/m3 and the mass density (362.81 K, 99990 kPa) was 775.91 ± 1.2 kg/m3.
